Reference: ChEMBL document CHEMBL1123020

Legend:
[1] = biological target: Beta-2 adrenergic receptor (Canis lupus familiaris) (UniProt P54833); assay: Apparent pA2 value for isoproterenol-induced vasodilation (beta2) evaluated against beta-2 adrenergic receptor in anesthetized dogs
[2] = biological target: Adrenergic receptor beta; ADRB1 & ADRB2 (Homo sapiens) (UniProt P08588+P07550); settings: Canis lupus familiaris
Description: Apparent pA2 value for blockade of isoproterenol-induced increase in heart rate evaluated against beta adrenergic receptor in anesthetized dogs

[3] = biological target: Beta-1 adrenergic receptor (Homo sapiens) (UniProt P08588); settings: Canis lupus familiaris
Chain of Beta-1 adrenergic receptor (Homo sapiens) (P08588 whole entry, looked up): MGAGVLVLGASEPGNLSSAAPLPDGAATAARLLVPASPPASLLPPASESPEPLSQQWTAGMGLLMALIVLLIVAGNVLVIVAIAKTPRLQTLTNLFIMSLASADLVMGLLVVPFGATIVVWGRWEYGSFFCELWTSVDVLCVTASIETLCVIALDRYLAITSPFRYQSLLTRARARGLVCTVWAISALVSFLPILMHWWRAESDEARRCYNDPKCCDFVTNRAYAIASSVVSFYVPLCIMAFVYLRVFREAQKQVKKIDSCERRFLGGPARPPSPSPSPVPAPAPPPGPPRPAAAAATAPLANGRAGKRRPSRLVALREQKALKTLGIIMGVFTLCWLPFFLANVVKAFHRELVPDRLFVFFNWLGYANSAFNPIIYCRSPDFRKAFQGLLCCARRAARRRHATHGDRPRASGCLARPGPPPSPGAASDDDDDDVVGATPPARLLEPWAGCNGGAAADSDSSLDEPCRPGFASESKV
Description: Apparent pA2 value for myocardial contractile force (beta-1) evaluated against beta-1 adrenergic receptor in anesthetized dogs

Chain of Beta-2 adrenergic receptor (Canis lupus familiaris) (P54833 whole entry, looked up): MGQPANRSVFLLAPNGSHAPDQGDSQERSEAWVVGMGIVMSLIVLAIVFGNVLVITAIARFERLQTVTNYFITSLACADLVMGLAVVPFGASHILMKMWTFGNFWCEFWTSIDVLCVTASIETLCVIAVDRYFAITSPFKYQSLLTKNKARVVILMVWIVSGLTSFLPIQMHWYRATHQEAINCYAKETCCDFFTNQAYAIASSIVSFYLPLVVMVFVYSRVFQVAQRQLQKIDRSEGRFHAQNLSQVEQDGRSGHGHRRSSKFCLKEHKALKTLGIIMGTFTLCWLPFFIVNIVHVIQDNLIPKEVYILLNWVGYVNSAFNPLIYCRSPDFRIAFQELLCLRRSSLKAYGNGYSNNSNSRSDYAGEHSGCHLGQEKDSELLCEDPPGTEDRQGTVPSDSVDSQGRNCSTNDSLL
Chain of Adrenergic receptor beta; ADRB1 & ADRB2 (Homo sapiens) (P07550 whole entry, looked up): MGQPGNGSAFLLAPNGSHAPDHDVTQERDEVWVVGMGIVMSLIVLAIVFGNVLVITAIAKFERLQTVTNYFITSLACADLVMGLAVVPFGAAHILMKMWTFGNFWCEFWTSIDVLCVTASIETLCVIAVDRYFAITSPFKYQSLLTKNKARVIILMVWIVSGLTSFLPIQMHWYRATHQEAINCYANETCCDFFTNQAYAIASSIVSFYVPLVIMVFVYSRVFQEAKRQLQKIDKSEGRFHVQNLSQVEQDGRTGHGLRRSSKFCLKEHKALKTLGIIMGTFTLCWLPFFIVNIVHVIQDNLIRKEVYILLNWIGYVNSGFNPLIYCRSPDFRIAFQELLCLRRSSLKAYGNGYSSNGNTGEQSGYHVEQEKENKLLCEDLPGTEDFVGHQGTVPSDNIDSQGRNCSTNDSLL
Chain of Adrenergic receptor beta; ADRB1 & ADRB2 (Homo sapiens) (P08588 whole entry, looked up): as the sequence (P08588 whole entry, looked up) above

Vasodilation [1]: 4.82
Contractile force [3]: 4.75
Compound: CC(C)NCC(O)COc1ccc(O)c2ccccc12 (stereo not drawn)
Heart rate [2]: 5.12
